Measurements reported in patent US12605362B2, “Eletriptan hydrobromide for treatment of spinal cord injury and improvement of locomotor function” (TECHNOPHAGE, INVESTIGAÇÃO E DESENVOLVIMENTO EM …, priority 2020, dated 2026).
Counter-ions that a name gives are not always drawn.

Legend:
Type in all cases: in vivo
[1] = tested on: mice with T9 contusion type of injury; experiment: acetone evaporation assay (cold allodynia) after T9 contusion SCI; details: 14 dpi and 42 dpi, vs Vehicle
Experimental: (§1) A moderate-severe contusion-type of injury was performed on adult C57BL/6 female mice (10-12 weeks) with an Infinite Horizon Impactor (PSI)^30. All surgeries were performed under aseptic conditions. Briefly, under deep anesthesia with Ketamine and Xylazine (120 mg/kg and 16 mg/kg respectively, i.p.) mice received a dorsal laminectomy at the level of 9th thoracic vertebra (T9). After securing the lateral processes of the 8th thoracic vertebra (T8) and 10th thoracic vertebra (T10) with a stainless-steel impactor tip, a controlled force-defined impact at 75 kdyne was delivered to the exposed spinal cord^28,30. Then, muscle and skin were closed with 4.0 polyglycolic acid (PGA) absorbable sutures (Safil, G1048213). In this study, mice were excluded when the actual displacement value was outside the interval 500-700 μm or if the actual force after impact was >2SD 75 Kdyne. […] Weight was monitored daily until 15 days-post-injury (dpi) and then weekly for the duration of the study and a high caloric pellet (Supreme Mini-Treats™ S05478 and S05472) was provided as a dietary supplement since a 10% weight loss was typically observed in this SCI model upon injury. […]
An acetone evaporation assay was used to measure the sensitivity to a cold stimulus upon injury^33. […] In each trial, the time spent flicking or licking the hind paw for 60 seconds was measured using a timer and recorded for analysis^34. […]

[2] = tested on: mice with T9 contusion type of injury; experiment: fibrotic scar quantification (PDGFRβ / GFAP immunohistochemistry); details: 42 dpi, vs Vehicle
Experimental: as §1, with “Kdyne. Immediately after injury, mice were injected subcutaneously with 0.5 ml of sterile saline and then daily for 5 days.” for “Kdyne.”
(§2) For immunohistochemistry in sections, OCT was removed from the cryosections using PBS (30 minutes). […] For activated microglia quantification, sections were counterstained with DAPI. […]
One set of sections was stained with anti-PDGFRβ and anti-GFAP to outline the border of the fibrotic scar area. Z-stack compositions were acquired in a motorized inverted widefield fluorescence microscope (Zeiss Cell Observer, Carl Zeiss MicroImaging) with 20× magnification. Fiji software was used to manually outline and calculate the PDGFRβ^+ area and total cross-sectional area to thereafter quantify the percentage of fibrotic scar area per total cross-sectional area. The rostral and caudal extents of fibrotic lesion were determined by inspection. […]

[3] = tested on: mice with T9 contusion type of injury; experiment: PDGFRβ / CD31 (PECAM-1) double immunohistochemistry, vasculature association; details: sections 1000 μm from epicentre, 42 dpi, vs Vehicle
Experimental: as §1, with “cord^28,30.” for “cord^28,30. Then, muscle and skin were closed with 4.0 polyglycolic acid (PGA) absorbable sutures (Safil, G1048213). In this study, mice were excluded when the actual displacement value was outside the interval 500-700 μm or if the actual force after impact was >2SD 75 Kdyne.”
as §2
To infer if increased levels of PDGFRβ^+ detected on the extremities of the lesion extents were associated with blood vessels we decided to performed a double immunohistochemistry using a pericyte marker PDGFRβ and an endothelial cell marker CD31 (PECAM-1) (FIG. 7). […]

With `CN1CCC[C@@H]1Cc1c[nH]c2ccc(CCS(=O)(=O)c3ccccc3)cc12` [Eletriptan Hbr, Eletriptan Hydrobromide] the “cumulative reaction time of nocifensive responses” value [1] was “consistently but not a significantly decrease”, the “number of episodes of the cold hypersensitivity” value [1] was “lower number of episodes” and the “extension of PDGFRβ+ lesion core” value [2] was “no statistically significant differences”. For the same compound, the “extension of increased levels of PDGFRβ+ immunostaining” value [2] was “statistically significant reduction”, the “area of fibrotic lesion core” value ([2]; at lesion epicentre) was “no statistically significant differences” and the “increased expression of PDGFRβ associated with CD31+ endothelial cells” value [3] was “reduced”.
